Results taken from ChEMBL document CHEMBL1127728, “Docking analysis of a series of benzylamino acetylcholinesterase inhibitors with a phthalimide, benzoyl, or indanone moiety” (J Med Chem, 1994).

These compounds were tested against T1, Acetylcholinesterase (Rattus norvegicus, UniProt P37136) (assay: Inhibition concentration against rat acetylcholinesterase).
T1 sequence (P37136 whole entry): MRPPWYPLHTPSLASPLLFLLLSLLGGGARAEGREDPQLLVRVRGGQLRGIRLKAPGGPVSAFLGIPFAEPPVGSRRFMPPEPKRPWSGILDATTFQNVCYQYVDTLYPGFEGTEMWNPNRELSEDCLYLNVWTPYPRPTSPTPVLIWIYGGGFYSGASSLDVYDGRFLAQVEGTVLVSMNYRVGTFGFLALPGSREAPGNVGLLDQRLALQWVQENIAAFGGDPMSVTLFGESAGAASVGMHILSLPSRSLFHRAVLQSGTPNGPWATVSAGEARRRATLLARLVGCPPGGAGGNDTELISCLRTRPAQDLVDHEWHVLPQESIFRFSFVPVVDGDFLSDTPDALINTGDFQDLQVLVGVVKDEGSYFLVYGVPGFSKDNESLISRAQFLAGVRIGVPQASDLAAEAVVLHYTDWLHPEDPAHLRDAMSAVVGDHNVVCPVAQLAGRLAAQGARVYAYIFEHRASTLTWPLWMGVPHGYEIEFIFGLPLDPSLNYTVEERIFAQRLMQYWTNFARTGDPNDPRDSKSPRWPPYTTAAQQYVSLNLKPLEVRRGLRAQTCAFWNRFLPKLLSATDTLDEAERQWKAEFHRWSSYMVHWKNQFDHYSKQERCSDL
With O=C1c2ccc([N+](=O)[O-])cc2C(=O)N1CCC1CCN(Cc2ccccc2)CC1 the IC50 was 0.013 µM. CN(CCCCCCN1C(=O)c2ccc([N+](=O)[O-])cc2C1=O)Cc1ccccc1 was tested, and the IC50 was 0.474 µM. For COc1ccccc1CN1CCC(CCC(=O)c2ccc(N3CCCC3)cc2)CC1, the IC50 was 1.9 µM. Compound COc1ccc(C(=O)CCC2CCN(Cc3ccccc3)CC2)cc1OC has an IC50 of 0.052 µM. With CCN(CCCCCNC(=O)/C=C/c1ccccc1)Cc1ccccc1 the IC50 was 11.8 µM. With CCN(CCCCCN(C(C)=O)C(=O)/C=C/c1ccccc1)Cc1ccccc1 the IC50 was 2.3 µM. CCN(CCCCCCCc1ccc(OC)c(OC)c1)Cc1ccccc1OC gave an IC50 of 1.07 µM. With CCN(CCCCCN1C(=O)c2ccc([N+](=O)[O-])cc2C1=O)CCCc1ccccc1 the IC50 was 0.161 µM. O=C1c2ccccc2C(=O)N1CCC1CCN(Cc2ccccc2)CC1 showed an IC50 of 0.03 µM. For CCN(CCCCCC(=O)c1ccc(OC)c(OC)c1)Cc1ccccc1OC, the IC50 was 0.024 µM. With O=C1c2ccc([N+](=O)[O-])cc2C(=O)N1C1CCN(Cc2ccccc2)CC1 the IC50 was 27 µM. CCN(CCCCCN1C(=O)C2CCCCC2C1=O)Cc1ccccc1 (stereo unspecified) gave an IC50 of 18.5 µM. With O=C1c2ccc([N+](=O)[O-])cc2C(=O)N1CC1CCN(Cc2ccccc2)CC1 the IC50 was 3 µM. CCCN(CCCCCN1C(=O)c2ccc([N+](=O)[O-])cc2C1=O)Cc1ccccc1 gave an IC50 of 2.65 µM. CCN(CCCCCN1C(=O)c2ccc([N+](=O)[O-])cc2C1=O)Cc1cccc(OC(=O)NC)c1 showed an IC50 of 0.00038 µM. Compound CCN(CCCCCN1C(=O)c2ccc([N+](=O)[O-])cc2C1=O)CC1CCCCC1 has an IC50 of 1.09 µM. Work on CCN(CCCCCN1C(=O)c2ccc([N+](=O)[O-])cc2C1=O)Cc1ccccc1OC yielded an IC50 of 0.024 µM. With CN(CCCCCN1C(=O)c2ccc([N+](=O)[O-])cc2C1=O)Cc1ccccc1 the IC50 was 1.36 µM. Work on CCN(CCCCCCN1C(=O)c2ccc([N+](=O)[O-])cc2C1=O)Cc1ccccc1 yielded an IC50 of 0.607 µM. With CCN(CCCCCN1C(=O)c2ccc([N+](=O)[O-])cc2C1=O)Cc1cccc(OC)c1OC the IC50 was 0.274 µM. Work on CCN(CCCCCN(C(C)=O)C(=O)/C=C/c1ccc([N+](=O)[O-])cc1)Cc1ccccc1 yielded an IC50 of 0.539 µM. For CCN(CCCCCC(=O)c1ccc(N2CCCC2)cc1)Cc1ccccc1, the IC50 was 0.305 µM. For CCN(CCCCCCC(=O)c1ccc(OC)c(OC)c1)Cc1ccccc1OC, the IC50 was 0.01 µM. CCN(CCCCCN1C(=O)c2ccccc2C1=O)Cc1ccccc1 showed an IC50 of 3.37 µM. With CCN(CCCCCN1C(=O)c2ccc([N+](=O)[O-])cc2C1=O)CCc1ccccc1 the IC50 was 0.77 µM. CCN(CCCCCCOc1ccc(OC)c(OC)c1)Cc1ccccc1OC gave an IC50 of 0.92 µM.
